Experimental data taken from patent US20080009418A1, “Selective Inhibitors” (Alchemia LTD., priority 2004, published 2008).

Legend:
Settings in all cases: compound at 10 μM
[1] = target: T1, Human opioid (ORL1) (Homo sapiens, UniProt P41146); experiment: Radioligand binding, human opioid ORL1 membranes, FlashPlate, [125I]-Nociceptin
T1 construct: purchased Perkin Elmer Biosignal
Method: (§1) Cloned receptor membrane preparations from Perkin Elmer Biosignal™ were used in radioligand binding assays.
(§2) A1 Human δ-opioid (DOP), A2 Human κ-Opioid (KOP), A3 Human Melanocortin (MC3), A4 Human Melanocortin (MC4), A5 Human melanocortin (MC5), A6 Human melanin-concentrating hormone (MCH1), A7 Human μ-opioid (MOP), A8 Human neurokinin (NK1), A9 Human neuropeptide Y (NPY-Y1), A10 Human opioid (ORL1) A11 Mouse urotensin (mUR2)
(§3) Screening experiments were performed in either a 50 μl filtration or 25 μl FlashPlate assay format using the following protocol:
(§4) 19.5 μl buffer, 0.5 μl of compound diluted in DMSO, 5 μl of radioligand diluted in binding buffer.
(§5) The day prior to performing the experiment 50 μl DMSO was added to each well of the compound plates to yield compounds at a final concentration of 10 mM. Daughter plates were then created by diluting the compounds further in DMSO to a concentration of 0.5 mM. The mother plates were frozen immediately.
(§6) Immobilize membranes into FlashPlate microplates using PerkinElmer BioSignal's proprietary coating procedure. Dilute radioligand to 5× the final concentration in binding buffer. Add 19.5 μl buffer to each well of the FlashPlate. Add 0.5 μl of DMSO (total value, 5 wells), reference ligand (non-specific value, 3 wells) or compound to the corresponding wells in the FlashPlate microplate. Initiate the reaction by adding 5 μl of radioligand to each well. Apply TopSeal-A onto FlashPlate microplates. Incubate at room temperature for 1 hour in the dark. Count for 30 seconds per well on TopCount Microplate Scintillation and Luminescence Counter (PerkinElmer) using a count delay of 60 seconds.
(§7) Percentage inhibition was calculated using the following formula: [formula]

[2] = target: T2, Human μ-opioid (MOP) (Homo sapiens, UniProt P35372); experiment: Radioligand binding, human μ-opioid (MOP) membranes, FlashPlate, [3H]-Naloxone
T2 construct: purchased Perkin Elmer Biosignal
T2 sequence (P35372 whole entry): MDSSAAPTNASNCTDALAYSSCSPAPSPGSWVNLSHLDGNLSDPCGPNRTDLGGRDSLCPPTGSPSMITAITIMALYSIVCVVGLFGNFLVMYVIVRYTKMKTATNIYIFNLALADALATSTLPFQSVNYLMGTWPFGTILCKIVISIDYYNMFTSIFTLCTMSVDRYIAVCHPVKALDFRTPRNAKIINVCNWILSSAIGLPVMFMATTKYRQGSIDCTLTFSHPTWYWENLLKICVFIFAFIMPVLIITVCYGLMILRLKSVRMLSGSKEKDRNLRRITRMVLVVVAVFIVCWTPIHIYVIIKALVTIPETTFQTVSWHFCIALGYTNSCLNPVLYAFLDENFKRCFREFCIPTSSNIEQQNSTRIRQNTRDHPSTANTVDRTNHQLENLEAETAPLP
Method: as §1, §2, §3, §4, §5, §6, §7

[3] = target: T3, Human Melanocortin (MC4) (Homo sapiens, UniProt P32245); experiment: Radioligand binding, human melanocortin MC4 membranes, FlashPlate, [125I]-NDP-αMSH
T3 construct: purchased Perkin Elmer Biosignal
T3 sequence (P32245 whole entry): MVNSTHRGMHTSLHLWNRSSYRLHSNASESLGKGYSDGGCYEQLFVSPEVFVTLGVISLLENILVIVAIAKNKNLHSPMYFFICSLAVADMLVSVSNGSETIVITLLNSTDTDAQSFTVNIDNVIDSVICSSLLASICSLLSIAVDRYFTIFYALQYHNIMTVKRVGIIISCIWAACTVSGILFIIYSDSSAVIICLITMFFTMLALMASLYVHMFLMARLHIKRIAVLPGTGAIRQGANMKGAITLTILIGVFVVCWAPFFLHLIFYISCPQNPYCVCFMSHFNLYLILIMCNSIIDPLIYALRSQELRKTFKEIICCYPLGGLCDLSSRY
Method: as §1, §2, §3, §4, §5, §6, §7

[4] = target: T4, Human neurokinin (NK1) (Homo sapiens, UniProt P25103); experiment: Radioligand binding, human neurokinin NK1 membranes, filtration, [125I]-Substance P
T4 construct: purchased Perkin Elmer Biosignal
T4 sequence (P25103 whole entry): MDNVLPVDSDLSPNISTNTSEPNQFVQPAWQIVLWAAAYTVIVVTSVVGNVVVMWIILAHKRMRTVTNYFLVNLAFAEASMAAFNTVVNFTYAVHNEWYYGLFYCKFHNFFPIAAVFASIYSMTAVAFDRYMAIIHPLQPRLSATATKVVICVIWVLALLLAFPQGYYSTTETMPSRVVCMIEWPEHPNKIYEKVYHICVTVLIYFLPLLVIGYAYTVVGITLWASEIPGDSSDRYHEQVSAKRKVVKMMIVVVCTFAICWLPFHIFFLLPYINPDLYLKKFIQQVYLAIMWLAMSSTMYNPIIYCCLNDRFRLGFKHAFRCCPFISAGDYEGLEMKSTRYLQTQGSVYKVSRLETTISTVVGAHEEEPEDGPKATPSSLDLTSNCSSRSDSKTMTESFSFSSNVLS
Method: as §1, §2, §3
(§8) 44 μl membranes diluted in buffer, 1 μl of compound diluted in DMSO, 5 μl of radioligand diluted in binding buffer.
as §5
(§9) Thaw membranes on ice then dilute membranes in binding buffer at a concentration of 1 Unit per well. Dilute radio-ligand to 10 times the final concentration in binding buffer. Add 44 μl of diluted membranes to each well of the deep-well plate. Add 1 μl of DMSO (total value, 5 wells), reference ligand (non-specific value, 3 wells) or compound to the corresponding wells in the deep-well plate. Initiate the reaction by adding 5 μl of radioligand to each well and vortex gently. Incubate at room temperature for 1 hour. During incubation, pre-incubate the Multiscreen Harvest plates in 0.3% PEI. Filter over pre-soaked Multiscreen Harvest plates using a Tomtec Harvester. Wash 9 times with 500 μl of cold 50 mM Tris-HCl pH 7.4 at 4° C. and air-dry for 30 minutes at room temperature under a fume hood. Apply a bottom seal to the Multiscreen Harvest plates. Add 25 μl of MicroScint-0 to each well. Apply TopSeal-A to the plate. Count for 30 seconds per well on TopCount Microplate Scintillation and Luminescence Counter (PerkinElmer) using a count delay of 60 seconds.
as §7

[5] = target: T5, Human κ-Opioid (KOP) (Homo sapiens, UniProt P41145); experiment: Radioligand binding, human κ-opioid (KOP) membranes, filtration, [3H]-Diprenorphine
T5 construct: purchased Perkin Elmer Biosignal
T5 sequence (P41145 whole entry): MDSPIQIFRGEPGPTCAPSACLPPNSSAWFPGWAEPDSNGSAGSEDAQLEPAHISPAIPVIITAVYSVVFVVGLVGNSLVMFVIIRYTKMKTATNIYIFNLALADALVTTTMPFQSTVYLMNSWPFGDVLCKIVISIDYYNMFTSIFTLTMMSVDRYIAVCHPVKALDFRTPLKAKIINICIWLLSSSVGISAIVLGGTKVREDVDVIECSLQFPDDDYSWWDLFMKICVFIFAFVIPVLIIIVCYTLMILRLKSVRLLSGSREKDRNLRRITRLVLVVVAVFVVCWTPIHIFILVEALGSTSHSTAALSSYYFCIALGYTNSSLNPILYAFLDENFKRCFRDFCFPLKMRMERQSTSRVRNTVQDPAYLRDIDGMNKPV
Method: as §1, §2, §3, §8, §5, §9, §7

[6] = target: T6, Human Melanocortin (MC3) (Homo sapiens, UniProt P41968); experiment: Radioligand binding, human melanocortin MC3 membranes, FlashPlate, [125I]-NDP-αMSH
T6 construct: purchased Perkin Elmer Biosignal
T6 sequence (P41968 whole entry): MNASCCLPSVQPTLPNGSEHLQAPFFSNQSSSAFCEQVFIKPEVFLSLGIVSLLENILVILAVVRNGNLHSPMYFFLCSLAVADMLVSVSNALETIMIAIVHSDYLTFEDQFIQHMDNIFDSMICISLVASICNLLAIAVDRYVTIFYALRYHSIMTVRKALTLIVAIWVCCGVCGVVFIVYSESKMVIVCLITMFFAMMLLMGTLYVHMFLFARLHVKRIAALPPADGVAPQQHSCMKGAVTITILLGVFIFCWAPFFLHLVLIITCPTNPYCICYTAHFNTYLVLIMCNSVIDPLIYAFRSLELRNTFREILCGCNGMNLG
Method: as §1, §2, §3, §4, §5, §6, §7

[7] = target: T7, Human melanocortin (MC5) (Homo sapiens, UniProt P33032); experiment: Radioligand binding, human melanocortin MC5 membranes, FlashPlate, [125I]-NDP-αMSH
T7 construct: purchased Perkin Elmer Biosignal
T7 sequence (P33032 whole entry): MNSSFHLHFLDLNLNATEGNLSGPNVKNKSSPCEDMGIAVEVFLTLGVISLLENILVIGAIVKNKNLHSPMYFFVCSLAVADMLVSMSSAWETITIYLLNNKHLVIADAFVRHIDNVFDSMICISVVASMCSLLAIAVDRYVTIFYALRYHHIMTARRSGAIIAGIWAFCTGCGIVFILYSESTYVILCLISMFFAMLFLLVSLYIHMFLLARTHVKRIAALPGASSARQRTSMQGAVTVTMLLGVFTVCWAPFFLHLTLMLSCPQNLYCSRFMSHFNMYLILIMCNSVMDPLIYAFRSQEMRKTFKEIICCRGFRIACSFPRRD
Method: as §1, §2, §3, §4, §5, §6, §7

[8] = target: T8, Human melanin-concentrating hormone (MCH1) (Homo sapiens, UniProt Q99705); experiment: Radioligand binding, human melanin-concentrating hormone MCH1 membranes, FlashPlate, [125I]-S36057
T8 construct: purchased Perkin Elmer Biosignal
T8 sequence (Q99705 whole entry): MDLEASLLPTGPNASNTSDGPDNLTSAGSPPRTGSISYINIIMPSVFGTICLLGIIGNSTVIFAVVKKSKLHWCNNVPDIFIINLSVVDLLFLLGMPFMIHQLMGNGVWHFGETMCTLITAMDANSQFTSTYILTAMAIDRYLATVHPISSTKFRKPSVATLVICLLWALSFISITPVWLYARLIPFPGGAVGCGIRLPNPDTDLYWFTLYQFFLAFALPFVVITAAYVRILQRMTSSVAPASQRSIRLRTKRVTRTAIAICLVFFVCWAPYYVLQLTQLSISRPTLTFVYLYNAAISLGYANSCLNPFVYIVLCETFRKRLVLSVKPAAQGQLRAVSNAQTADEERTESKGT
Method: as §1, §2, §3, §4, §5, §6, §7

[9] = target: T9, Human δ-opioid (DOP) (Homo sapiens, UniProt P41143); experiment: Radioligand binding, human δ-opioid (DOP) membranes, FlashPlate, [3H]-Bremazocine
T9 construct: purchased Perkin Elmer Biosignal
T9 sequence (P41143 whole entry): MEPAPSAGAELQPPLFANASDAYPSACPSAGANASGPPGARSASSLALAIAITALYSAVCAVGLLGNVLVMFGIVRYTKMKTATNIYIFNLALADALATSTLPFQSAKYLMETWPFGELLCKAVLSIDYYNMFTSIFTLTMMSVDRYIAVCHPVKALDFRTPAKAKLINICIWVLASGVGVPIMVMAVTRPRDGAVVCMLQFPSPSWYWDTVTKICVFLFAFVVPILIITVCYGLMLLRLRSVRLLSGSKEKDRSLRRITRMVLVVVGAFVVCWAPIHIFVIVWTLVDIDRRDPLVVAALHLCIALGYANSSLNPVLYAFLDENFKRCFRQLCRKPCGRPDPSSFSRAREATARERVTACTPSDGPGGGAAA
Method: as §1, §2, §3, §4, §5, §6, §7

[10] = target: T10, Human neuropeptide Y (NPY-Y1) (Homo sapiens, UniProt P25929); experiment: Radioligand binding, human neuropeptide Y NPY-Y1 membranes, FlashPlate, [125I]-PYY
T10 construct: purchased Perkin Elmer Biosignal
T10 sequence (P25929 1-384): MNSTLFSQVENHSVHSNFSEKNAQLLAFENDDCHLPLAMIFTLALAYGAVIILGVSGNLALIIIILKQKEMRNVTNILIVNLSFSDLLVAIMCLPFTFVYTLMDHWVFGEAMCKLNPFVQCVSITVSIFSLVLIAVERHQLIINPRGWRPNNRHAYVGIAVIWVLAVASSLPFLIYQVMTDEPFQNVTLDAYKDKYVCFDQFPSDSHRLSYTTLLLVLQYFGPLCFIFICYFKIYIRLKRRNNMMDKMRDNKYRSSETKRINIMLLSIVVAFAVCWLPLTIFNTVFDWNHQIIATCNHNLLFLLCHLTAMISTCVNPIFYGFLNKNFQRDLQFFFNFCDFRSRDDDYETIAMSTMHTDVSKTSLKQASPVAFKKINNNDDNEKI
Method: as §1, §2, §3, §4, §5, §6, §7

[11] = target: T11, Mouse urotensin (mUR2) (Mus musculus, UniProt Q8VIH9); experiment: Radioligand binding, mouse urotensin mUR2 membranes, FlashPlate, [125I]-Urotensin II
T11 construct: purchased Perkin Elmer Biosignal
T11 sequence (Q8VIH9 1-385): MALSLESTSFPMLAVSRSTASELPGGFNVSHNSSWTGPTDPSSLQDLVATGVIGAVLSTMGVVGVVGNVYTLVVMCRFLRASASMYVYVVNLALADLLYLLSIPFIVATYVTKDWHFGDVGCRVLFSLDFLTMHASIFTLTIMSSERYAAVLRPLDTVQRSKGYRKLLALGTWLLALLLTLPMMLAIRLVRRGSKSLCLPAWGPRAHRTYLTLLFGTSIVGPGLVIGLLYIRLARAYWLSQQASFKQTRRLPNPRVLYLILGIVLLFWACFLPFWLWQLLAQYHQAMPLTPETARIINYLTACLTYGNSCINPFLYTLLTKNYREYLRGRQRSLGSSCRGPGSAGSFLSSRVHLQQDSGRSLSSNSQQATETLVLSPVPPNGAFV
Method: as §1, §2, §3, §4, §5, §6, §7

T1 sequence (P41146 whole entry): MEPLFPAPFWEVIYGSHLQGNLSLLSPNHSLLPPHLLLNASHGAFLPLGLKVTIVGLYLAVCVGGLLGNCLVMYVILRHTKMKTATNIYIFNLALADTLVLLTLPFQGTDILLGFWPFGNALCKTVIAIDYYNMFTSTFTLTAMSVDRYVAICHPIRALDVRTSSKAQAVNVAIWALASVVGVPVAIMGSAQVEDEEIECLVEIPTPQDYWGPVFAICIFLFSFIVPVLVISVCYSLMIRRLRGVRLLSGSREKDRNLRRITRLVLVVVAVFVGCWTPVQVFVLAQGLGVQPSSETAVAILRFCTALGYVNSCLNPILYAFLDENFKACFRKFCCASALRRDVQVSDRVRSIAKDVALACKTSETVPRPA

## CO[C@H]1[C@H](O)[C@@H](COCc2ccc(-c3ccccc3)cc2)OC(OCc2ccc3ccccc3c2)[C@@H]1NC(=O)CNC(=N)N (stereo partly drawn) [compound 66]
[1]; human ORL1 membranes
  A10 radioligand binding inhibition: − (“−” indicates less than 50% inhibition at 10 μM)
[2]; human μ-opioid (MOP) membranes
  A7 radioligand binding inhibition: + (“+” indicates greater than 50% inhibition at 10 μM)
[3]; human melanocortin MC4 membranes
  A4 radioligand binding inhibition: + (“+” indicates greater than 50% inhibition at 10 μM)
[4]; human neurokinin NK1 membranes
  A8 radioligand binding inhibition: + (“+” indicates greater than 50% inhibition at 10 μM)
[5]; human κ-opioid (KOP) membranes
  A2 radioligand binding inhibition: − (“−” indicates less than 50% inhibition at 10 μM)
[6]; human melanocortin MC3 membranes
  A3 radioligand binding inhibition: + (“+” indicates greater than 50% inhibition at 10 μM)
[7]; human melanocortin MC5 membranes
  A5 radioligand binding inhibition: + (“+” indicates greater than 50% inhibition at 10 μM)
[8]; human MCH1 membranes
  A6 radioligand binding inhibition: + (“+” indicates greater than 50% inhibition at 10 μM)
[9]; human δ-opioid (DOP) membranes
  A1 radioligand binding inhibition: − (“−” indicates less than 50% inhibition at 10 μM)
[10]; human NPY-Y1 membranes
  A9 radioligand binding inhibition: − (“−” indicates less than 50% inhibition at 10 μM)
[11]; mouse urotensin mUR2 membranes
  A11 radioligand binding inhibition: − (“−” indicates less than 50% inhibition at 10 μM)

## NCCC(=O)NC1C(OCc2ccc3ccccc3c2)OC(COCc2ccccc2)C(O)C1OCc1ccccc1 (stereo not drawn) [compound 388]
[1]; [125I]-Nociceptin, human ORL1 membranes
  A10: inhibition of radioligand binding: − (“−” indicates less than 50% inhibition at 10 μM)
[2]; [3H]-Naloxone, human MOP membranes
  A7: inhibition of radioligand binding: − (“−” indicates less than 50% inhibition at 10 μM)
[3]; [125I]-NDP-αMSH, human MC4 membranes
  A4: inhibition of radioligand binding: + (“+” indicates greater than 50% inhibition at 10 μM)
[4]; [125I]-Substance P, human NK1 membranes
  A8: inhibition of radioligand binding: + (“+” indicates greater than 50% inhibition at 10 μM)
[5]; [3H]-Diprenorphine, human KOP membranes
  A2: inhibition of radioligand binding: − (“−” indicates less than 50% inhibition at 10 μM)
[6]; [125I]-NDP-αMSH, human MC3 membranes
  A3: inhibition of radioligand binding: − (“−” indicates less than 50% inhibition at 10 μM)
[7]; [125I]-NDP-αMSH, human MC5 membranes, 10 µM
  A5: inhibition of radioligand binding: + (“+” indicates greater than 50% inhibition at 10 μM)
[8]; [125I]-S36057, human MCH1 membranes
  A6: inhibition of radioligand binding: − (“−” indicates less than 50% inhibition at 10 μM)
[9]; [3H]-Bremazocine, human DOP membranes
  A1: inhibition of radioligand binding: − (“−” indicates less than 50% inhibition at 10 μM)
[10]; [125I]-PYY, human NPY-Y1 membranes
  A9: inhibition of radioligand binding: − (“−” indicates less than 50% inhibition at 10 μM)
[11]; [125I]-Urotensin II, mouse mUR2 membranes
  A11: inhibition of radioligand binding: − (“−” indicates less than 50% inhibition at 10 μM)

## CSC1OC(COCc2ccccc2)C(O)C(OCc2ccc3ccccc3c2)C1NC(=O)CCCN (stereo not drawn) [compound 304]
[1]; [125I]-Nociceptin
  A10: inhibition of radioligand binding, human opioid (ORL1): − (“−” indicates less than 50% inhibition at 10 μM)
[2]; [3H]-Naloxone
  A7: inhibition of radioligand binding, human μ-opioid (MOP): − (“−” indicates less than 50% inhibition at 10 μM)
[3]; [125I]-NDP-αMSH
  A4: inhibition of radioligand binding, human melanocortin (MC4): − (“−” indicates less than 50% inhibition at 10 μM)
[4]; [125I]-Substance P
  A8: inhibition of radioligand binding, human neurokinin (NK1): + (“+” indicates greater than 50% inhibition at 10 μM)
[5]; [3H]-Diprenorphine
  A2: inhibition of radioligand binding, human κ-opioid (KOP): − (“−” indicates less than 50% inhibition at 10 μM)
[6]; [125I]-NDP-αMSH
  A3: inhibition of radioligand binding, human melanocortin (MC3): − (“−” indicates less than 50% inhibition at 10 μM)
[7]; [125I]-NDP-αMSH
  A5: inhibition of radioligand binding, human melanocortin (MC5): − (“−” indicates less than 50% inhibition at 10 μM)
[8]; [125I]-S36057
  A6: inhibition of radioligand binding, human melanin-concentrating hormone (MCH1): − (“−” indicates less than 50% inhibition at 10 μM)
[9]; [3H]-Bremazocine
  A1: inhibition of radioligand binding, human δ-opioid (DOP): − (“−” indicates less than 50% inhibition at 10 μM)
[10]; [125I]-PYY
  A9: inhibition of radioligand binding, human neuropeptide Y (NPY-Y1): − (“−” indicates less than 50% inhibition at 10 μM)
[11]; [125I]-Urotensin II
  A11: inhibition of radioligand binding, mouse urotensin (mUR2): − (“−” indicates less than 50% inhibition at 10 μM)
